Source: US7345080B2, “Substituted 4-pyrazolyl pyrazonlines used for pest control” (Bayer CropScience AG, priority 2002, dated 2008)

Experiments:
[1] = logP determination by HPLC (reversed-phase C 18), EEC Directive 79/831 Annex V.A8; assay type: physicochemical; conditions: acidic range, 0.1% aqueous phosphoric acid/acetonitrile; for chromatographic logP: reversed-phase C18 HPLC column, pH 2, reversed-phase C 18, 43° C.; for logP (pH 2): reversed-phase C 18, 43° C.
Description: The logP values given in the Tables and Preparation Examples above are determined in accordance with EEC Directive 79/831 Annex V.A8 by HPLC (High Performance Liquid Chromatography) using a reversed-phase column (C 18). Temperature: 43° C.
The determination is carried out in the acidic range at pH 2.3 using the-mobile phases 0.1% aqueous phosphoric acid and acetonitrile; linear gradient from 10% acetonitrile to 90% acetonitrile.

[2] = test system: caterpillars of the army worm (Spodoptera frugiperda); experiment: Spodoptera frugiperda test (dipped cabbage leaves); assay type: in vivo; conditions: for Efficacy in % after 7d: 500 ppm active compound, kill after 7 d, cabbage leaves (Brassica oleracea); for kill: active compound concentration of 500 ppm, after 7 days
Description: Spodoptera frugiperda Test
(§1) • Solvent: 7 parts by weight of dimethylformamide • Emulsifier: 2 parts by weight of alkylaryl polyglycol ether
(§2) To produce a suitable preparation of active compound, 1 part by weight of active compound is mixed with the stated amount of solvent and emulsifier, and the concentrate is diluted with emulsifier-containing water to the desired concentration.
Cabbage leaves (Brassica oleracea) are treated by being dipped into the preparation of active compound of the desired concentration and are populated with caterpillars of the army worm (Spodoptera frugiperda) while the leaves are still moist.
After the desired period of time, the kill in % is determined. 100% means that all caterpillars have been killed; 0% means that none of the caterpillars have been killed.

[3] = test system: larvae of the mustard beetle (Phaedon cochleariae); experiment: Phaedon larvae test (dipped cabbage leaves); assay type: in vivo; conditions: 500 ppm active compound, kill after 7 d, cabbage leaves (Brassica oleracea)
Description: as §1, §2
After the desired period of time, the kill in % is determined. 100% means that all beetle larvae have been killed; 0% means that none of the beetle larvae have been killed.

chromatographic logP [1]	SMILES	logP (pH 2) [1]	Efficacy in % after 7d [2] [%]	kill [2] [%]	Efficacy in % after 7d [3] [%]
2.96	CC(C)(C)n1nnc(-c2cnn(CC(=O)c3ccc(Cl)cc3)c2)n1 [2-[4-(2-tert-butyltetrazol-5-yl)pyrazol-1-yl]-4′-chloroacetophenone]	–	–	–	–
1.6	O=C(Cn1cc(-c2nn[nH]n2)cn1)c1ccc(Cl)cc1 [2-[4-(tetrazol-5-yl)pyrazol-1-yl]-4′-chloroacetophenone]	–	–	–	–
2.91	CC(C)(C)n1nnc(-c2cnn(C3CNN=C3c3ccc(Cl)cc3)c2)n1 (centres unmarked) [3-(4-chlorophenyl)-4-[4-(2-tert-butyltetrazol-5-yl)pyrazol-1-yl]4,5-dihydro-1H-pyrazole]	–	–	–	–
–	CC(C)(C)n1nnc(-c2cnn(C3CN(C(=O)Nc4ccc(OC(F)(F)F)cc4)N=C3c3ccc(Cl)cc3)c2)n1 (centres unmarked) [Example 1, N-(4-trifluoromethoxy)-3-(4-chlorophenyl)-4-[4-(2-tert-butyltetrazol-5-yl)pyrazol-1-yl]-4,5-dihydro-1-pyrazolecarboxanilide]	4.63	–	–	–
–	CC(C)(C)n1nnc(-c2cnn(C3CN(C(=O)N(CC#N)c4ccc(OC(F)(F)F)cc4)N=C3c3ccc(Cl)cc3)c2)n1 (centres unmarked) [Example 2, N-cyanomethyl-N(4-trifluoromethoxy)-3-(4-chlorophenyl)-4-[4-(2-tert-butyltetrazol-5-yl)pyrazol-1-yl]-4,5-dihydro-1-pyrazolecarboxanilide]	4.40	100	100	100
3.75	Cn1nnc(-c2cnn(C3CN(C(=O)Nc4ccc(OC(F)(F)F)cc4)N=C3c3ccc(Cl)cc3)c2)n1 (centres unmarked) [Example 4]	–	100	100	–
3.51	Cn1nnc(-c2cnn(C3CN(C(=O)N(CC#N)c4ccc(OC(F)(F)F)cc4)N=C3c3ccc(Cl)cc3)c2)n1 (centres unmarked) [Example 6]	–	100	–	100
